The record followed here is US5342853A, “Method of using nor-verapamil and nor-gallopamil as anti-arteriosclerotics” (priority 1989, dated 1994).

For series [1], the system named is atheromas (carotid artery). Nature of the series: Antiatherogenic action on rabbits: carotid atheromas induced by electrical stimulation plus cholesterol-rich diet, 28 days. The class given is in vivo, male rabbits. The settings on record: for Maximum number of cell layers in the atheromas / Maximum number of cell layers in the atheromas, % change: 28 days; for Maximum number of cell layers in the atheromas, % change: vs untreated control; for Action against arteriosclerosis (in words): general statement; for Inhibition of the development of atheromas (in words): compared with verapamil. On the procedure:
(§1) Local atheromas are induced by the method of E. Betz and W. Schlote (Basic Res. Cardiol. 1979, 74, 10-20) by electrical stimulation of the carotid artery while, at the same time, feeding a cholesterol-rich diet (2%). At the end of the test period, the atheromas formed under the anode of the stimulating electrodes are removed and their size is determined histologically. Used as a measure of the size of the atheromas is the maximum number of their cell layers determined microscopically from serial sections. The extent of the antiarteriosclerotic action is established by comparison with untreated control animals. Verapamil and gallopamil are used as comparative substances.

Assay in series [2]: as above
It is filed as in vivo, male rabbits. The settings on record: rabbit, in vivo; rabbits, oral part of the daily dose (given with s.c. doses); read-out: Highest tolerated daily dose, oral. Here is the method:
as §1

Where [3] appears, read: rabbits, highest tolerated daily dose 2 × 0.215 mg/kg s.c. + 4.64 mg/kg oral.
The mark [4] stands for this setting: rabbits, daily dose 2 × 1.0 mg/kg s.c. + 21.5 mg/kg oral, verapamil, nor-gallopamil *P < 0.05, nor-verapamil P = 0.682.
Setting [5] is: rabbits, daily dose 2 × 1.0 mg/kg s.c. + 21.5 mg/kg oral.

For `COc1ccc(CCN(C)CCCC(C#N)(c2cc(OC)c(OC)c(OC)c2)C(C)C)cc1OC` (centres unmarked) [Gallopamil, 5-[N-(3,4-dimethoxyphenethyl)-N-methylamino]-2-(3,4,5-trimethoxyphenyl]-2-isopropyl-valeronitrile], the “Antiatherogenic effect (in words)” value in series [1] (rabbits, at the highest tolerated daily dose) is given as “no antiatherogenic effect”. Moreover, in series [1] (setting [3]), the “Maximum number of cell layers in the atheromas” value is listed as 15 ± 0.99 and the “Maximum number of cell layers in the atheromas, % change” value (from here on “Maximum number … % change”) was “+7.1%”. The MTD at 672 h in series [2] came to 4.64 mg/kg.

For `COc1ccc(CCNCCCC(C#N)(c2cc(OC)c(OC)c(OC)c2)C(C)C)cc1OC` (centres unmarked) [Nor-gallopamil], the “Action against arteriosclerosis (in words)” value in series [1] was “very good action against arteriosclerosis”. Moreover, the “Inhibition of the development of atheromas (in words)” value in series [1] (rabbits) was “inhibit the development of atheromas to about the same extent as verapamil”. In series [1] (setting [4]), the “Maximum number of cell layers in the atheromas” value is 12 ± 1.3. The “Maximum number … % change” value in series [1] (setting [5]) is on record as -44%.

`COc1ccc(CCNCCCC(C#N)(c2ccc(OC)c(OC)c2)C(C)C)cc1OC` (centres unmarked) [Nor-verapamil, 5-[N-(3,4-dimethoxyphenethyl)-amino]-2-(3,4-dimethoxyphenyl)-2-isopropyl-valeronitrile]: in series [1], the “Action against arteriosclerosis (in words)” value is given as “very good action against arteriosclerosis”. For the same compound, the “Inhibition of the development of atheromas (in words)” value in series [1] (rabbits) is listed as “inhibit the development of atheromas to about the same extent as verapamil”. For the same compound, the “Maximum number of cell layers in the atheromas” value in series [1] (setting [4]) stood at 8.1 ± 1.3. For the same compound, in series [1] (setting [5]), the “Maximum number … % change” value was -40%.

Take `COc1ccc(CCN(C)CCCC(C#N)(c2ccc(OC)c(OC)c2)C(C)C)cc1OC` (centres unmarked) [Verapamil, 5-[N-(3,4-dimethoxyphenethyl)-N-methylamino]-2-(3,4-dimethoxyphenyl)-2-isopropyl-valeronitrile]: in series [1] (setting [4]), the “Maximum number of cell layers in the atheromas” value is listed as 3.8 ± 0.37. Also, in series [1] (setting [5]), the “Maximum number … % change” value is given as -51%.
